Results from BindingDB's records for patent US20250243196 (The Cleveland Clinic Foundation, 2025).
pIC50: −log10 of the molar value.

The compounds below were run against Citron Rho-interacting kinase (Homo sapiens, UniProt O14578) (assay: TR-FRET Based Assay).
Description: Not found

Chain of Citron Rho-interacting kinase (O14578 whole entry): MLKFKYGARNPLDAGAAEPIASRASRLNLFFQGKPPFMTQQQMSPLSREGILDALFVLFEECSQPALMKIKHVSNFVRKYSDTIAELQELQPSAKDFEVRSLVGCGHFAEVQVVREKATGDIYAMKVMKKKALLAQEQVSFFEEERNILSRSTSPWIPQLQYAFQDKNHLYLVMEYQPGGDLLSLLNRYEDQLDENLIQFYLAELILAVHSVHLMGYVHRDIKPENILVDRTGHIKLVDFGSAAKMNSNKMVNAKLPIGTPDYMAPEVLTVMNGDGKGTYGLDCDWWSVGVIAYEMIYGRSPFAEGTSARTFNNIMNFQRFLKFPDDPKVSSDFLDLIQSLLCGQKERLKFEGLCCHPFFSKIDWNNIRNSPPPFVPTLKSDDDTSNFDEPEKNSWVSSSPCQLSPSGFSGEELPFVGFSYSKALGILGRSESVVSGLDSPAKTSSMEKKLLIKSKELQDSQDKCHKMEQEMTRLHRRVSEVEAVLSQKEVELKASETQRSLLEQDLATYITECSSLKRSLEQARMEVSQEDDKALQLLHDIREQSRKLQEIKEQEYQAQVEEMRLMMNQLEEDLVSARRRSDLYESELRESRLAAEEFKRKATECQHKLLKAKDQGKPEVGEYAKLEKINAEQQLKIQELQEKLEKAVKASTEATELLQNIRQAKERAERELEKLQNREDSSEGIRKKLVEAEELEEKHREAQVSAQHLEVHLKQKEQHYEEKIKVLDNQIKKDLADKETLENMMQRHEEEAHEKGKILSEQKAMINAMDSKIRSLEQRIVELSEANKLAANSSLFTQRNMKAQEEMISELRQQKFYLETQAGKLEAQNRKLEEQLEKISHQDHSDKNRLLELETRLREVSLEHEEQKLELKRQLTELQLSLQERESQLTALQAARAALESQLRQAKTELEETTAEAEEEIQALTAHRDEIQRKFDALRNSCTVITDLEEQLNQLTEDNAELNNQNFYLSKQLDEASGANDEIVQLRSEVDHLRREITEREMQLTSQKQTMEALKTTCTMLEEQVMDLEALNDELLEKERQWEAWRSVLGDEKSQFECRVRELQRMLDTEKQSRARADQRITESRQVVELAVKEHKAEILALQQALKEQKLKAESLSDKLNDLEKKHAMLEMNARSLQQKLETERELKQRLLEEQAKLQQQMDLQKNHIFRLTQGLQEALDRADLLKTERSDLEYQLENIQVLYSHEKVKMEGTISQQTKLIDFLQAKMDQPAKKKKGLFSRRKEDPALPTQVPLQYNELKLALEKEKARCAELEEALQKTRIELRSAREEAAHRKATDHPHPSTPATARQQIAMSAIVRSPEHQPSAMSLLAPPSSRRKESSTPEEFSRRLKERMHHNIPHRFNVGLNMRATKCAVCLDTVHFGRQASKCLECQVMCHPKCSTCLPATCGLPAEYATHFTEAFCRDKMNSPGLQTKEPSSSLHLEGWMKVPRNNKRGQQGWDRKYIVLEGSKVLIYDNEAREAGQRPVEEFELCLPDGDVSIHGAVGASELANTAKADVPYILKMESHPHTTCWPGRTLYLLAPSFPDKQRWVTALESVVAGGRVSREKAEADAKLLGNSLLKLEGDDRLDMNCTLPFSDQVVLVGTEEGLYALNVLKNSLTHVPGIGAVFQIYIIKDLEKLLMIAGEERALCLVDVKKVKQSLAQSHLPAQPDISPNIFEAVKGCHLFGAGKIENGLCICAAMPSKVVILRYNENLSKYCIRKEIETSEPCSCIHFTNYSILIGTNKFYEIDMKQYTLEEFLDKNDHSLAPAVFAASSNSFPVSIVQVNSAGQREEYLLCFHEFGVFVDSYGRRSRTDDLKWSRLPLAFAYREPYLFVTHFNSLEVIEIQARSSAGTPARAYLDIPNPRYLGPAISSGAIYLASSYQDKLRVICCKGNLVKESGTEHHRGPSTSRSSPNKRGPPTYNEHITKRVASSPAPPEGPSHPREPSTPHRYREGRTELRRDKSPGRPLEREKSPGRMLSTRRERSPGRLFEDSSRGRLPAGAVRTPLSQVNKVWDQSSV

pIC50 | SMILES
5.82 | CN(C)C(Cc1ccccc1)C(=O)Nc1ccc(-c2ccnc3[nH]ccc23)cc1 (stereo unspecified) [US20250243196, Compound F-122]
5.89 | NC(Cc1ccc(Cl)cc1)C(=O)Nc1ccc(-c2ccnc3[nH]ccc23)cc1 (stereo unspecified) [US20250243196, Compound F-123]
5.52 | CNC(Cc1ccccc1)C(=O)Nc1ccc(-c2ccnc3[nH]ccc23)cc1 (stereo unspecified) [US20250243196, Compound F-121]
6.82 | NC(CC1CCOCC1)C(=O)Nc1ccc(-c2ccnc3[nH]ccc23)cc1 (stereo unspecified) [US20250243196, Compound F-120]
5.75 | NC(Cc1ccccc1Cl)C(=O)Nc1ccc(-c2ccnc3[nH]ccc23)cc1 (stereo unspecified) [US20250243196, Compound F-125]
6.27 | NC(Cc1cccc(Cl)c1)C(=O)Nc1ccc(-c2ccnc3[nH]ccc23)cc1 (stereo unspecified) [US20250243196, Compound F-124]
